The values below come from ChEMBL document CHEMBL3232869, “Anti-inflammatory components of Euphorbia humifusa Willd” (Bioorg Med Chem Lett, 2014).

The test system of data set [1] is RAW264.7. Briefly: Antiinflammatory activity in mouse RAW264.7 cells assessed as inhibition of LPS-induced nitric oxide production at 10 uM after 18 hrs by griess reaction analysis. The format is functional. The conditions noted are these: for inhibition at 10 µM: RAW264.7, 18 h.
Data set [2] has as its system RAW264.7. Nature of the data set: Antiinflammatory activity in mouse RAW264.7 cells assessed as inhibition of LPS-induced nitric oxide production at 0.4 uM after 18 hrs by griess reaction analysis. The format is functional, cell-based.
The subject of data set [3] is RAW264.7. Briefly: Cytotoxicity against mouse RAW264.7 cells assessed as cell viability at 50 uM after 18 hrs by MTT assay in presence of LPS. Type of data set: cell-based. The conditions noted are these: raw264.7, 18 h.
Data set [4] concerns RAW264.7. Nature of the data set: Antiinflammatory activity in mouse RAW264.7 cells assessed as inhibition of LPS-induced TNF-alpha secretion after 18 hrs by sandwich ELISA. The format is functional, cell-based. The conditions noted are these: RAW264.7, 18 h.
Data set [5] has as its system RAW264.7. Briefly: Antiinflammatory activity in mouse RAW264.7 cells assessed as inhibition of LPS-induced nitric oxide production after 18 hrs by griess reaction analysis. The format is functional, cell-based. The following applies: RAW264.7, 18 h.
Data set [6] has as its system RAW264.7. Nature of the data set: Antiinflammatory activity in mouse RAW264.7 cells assessed as inhibition of LPS-induced TNF-alpha secretion at 10 uM after 18 hrs by sandwich ELISA. The format is functional. The conditions noted are these: for inhibition at 10 µM: RAW264.7, 18 h.
Data set [7] deals with RAW264.7. Nature of the data set: Antiinflammatory activity in mouse RAW264.7 cells assessed as inhibition of LPS-induced TNF-alpha secretion at 0.4 uM after 18 hrs by sandwich ELISA. The format is functional, cell-based.
In data set [8] the target is T1, Bifunctional epoxide hydrolase 2 (Homo sapiens) (UniProt P34913).
T1 sequence (whole entry): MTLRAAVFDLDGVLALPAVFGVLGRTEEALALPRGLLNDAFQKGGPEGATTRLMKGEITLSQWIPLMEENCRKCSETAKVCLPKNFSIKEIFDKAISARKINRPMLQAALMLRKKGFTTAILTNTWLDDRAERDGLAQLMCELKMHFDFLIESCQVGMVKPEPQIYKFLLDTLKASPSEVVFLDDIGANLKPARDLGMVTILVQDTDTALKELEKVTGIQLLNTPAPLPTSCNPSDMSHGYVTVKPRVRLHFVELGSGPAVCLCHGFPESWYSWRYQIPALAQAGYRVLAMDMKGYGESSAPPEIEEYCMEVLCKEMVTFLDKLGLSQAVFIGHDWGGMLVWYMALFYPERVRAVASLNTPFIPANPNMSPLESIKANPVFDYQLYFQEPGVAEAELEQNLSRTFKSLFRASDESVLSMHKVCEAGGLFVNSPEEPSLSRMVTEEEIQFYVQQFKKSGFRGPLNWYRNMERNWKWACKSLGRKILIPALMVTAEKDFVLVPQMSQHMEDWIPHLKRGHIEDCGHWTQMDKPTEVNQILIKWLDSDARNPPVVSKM
Nature of the data set: Inhibition of sEH (unknown origin) assessed as substrate PHOME hydrolysis at 25 uM after 1 hr by fluorescence method.

Data set [9] has as its target T2, Bifunctional epoxide hydrolase 2 (Homo sapiens, UniProt P34913).
T2 sequence (P34913 whole entry): T1 sequence (whole entry)
Nature of the data set: Inhibition of sEH (unknown origin) assessed as substrate PHOME hydrolysis after 1 hr by fluorescence method.

Structures are written as SMILES. Active and inactive are the calls of the source. The calls are words filed in the database; no cut-off is given here.

Consider `COC(=O)c1cc(O)c(O)c(O)c1` [GALLIC ACID METHYL ESTER], for which the inhibition at 10 µM in [1] worked out at 35.1%. In addition, the inhibition entry in data set [2] and in data set [7] was “inactive” each time. Further, in data set [3], the Activity entry is given as “Non-toxic”. The values for the IC50 in [4] and in [5] were 29.4 µM and 11.1 µM, respectively. Besides, in [6], the inhibition entry was “Active”.
With `O=C(O[C@@H]1O[C@@H]2COC(=O)c3cc(O)c(O)c(O)c3-c3c(cc(O)c(O)c3O)C(=O)O[C@H]([C@H]1O)[C@@H]2O)c1cc(O)c(O)c(O)c1` [CORILAGIN], the inhibition result in [1] and in data set [6] was “Active” in each case. The inhibition result in [2] and in [7] was “inactive” throughout. Besides, in [3], the Activity result is “Non-toxic”. In addition, the 50% inhibitory concentration (IC50) amounted to 38.5 µM in data set [4] and 25.1 µM in data set [5]. For the same compound, the inhibition in data set [8] was above 40%.
For the compound `O=C(CCc1ccc(O)cc1)c1c(O)cc(O)cc1O[C@@H]1O[C@H](CO)[C@@H](O)[C@H](O)[C@H]1O` [PHLORIZIN], the inhibition result in data set [1], in data set [2] and in [7] was “inactive” each time. Also, the Activity entry in [3] is reported as “Non-toxic”. Moreover, the IC50 is 14.4 µM in data set [4] and 41.7 µM in [9]. The inhibition in [8] is above 40%. The inhibition at 10 µM in data set [6] was determined as 21.5%.
For `C[C@@H]1O[C@@H](Oc2c(-c3ccc(O)c(O)c3)oc3cc(O)cc(O)c3c2=O)[C@H](OC(=O)c2cc(O)c(O)c(O)c2)[C@H](O)[C@H]1O`, the inhibition entry in data set [1], in [2] and in data set [7] was “inactive” in each case. The Activity result in data set [3] is recorded as “Non-toxic”. Further, the IC50 in data set [4] is 26.1 µM; in [9], 18.6 µM. Moreover, the inhibition in data set [8] was above 40%. Moreover, in data set [6], the inhibition entry was “Active”.
In the case of `O=c1c(O[C@@H]2O[C@H](CO)[C@@H](O)[C@H](O)[C@H]2O)c(-c2cc(O)c(O)c(O)c2)oc2cc(O)cc(O)c12`, the inhibition result in [1] and in [6] was “Active” each time. Further, the inhibition result in [2] and in [7] was “inactive” in each case. Further, the Activity result in data set [3] is listed as “Non-toxic”. Also, the IC50 amounted to 21.2 µM in data set [5] and 17.2 µM in data set [9]. In addition, the inhibition in data set [8] was above 40%.
Take `CC1=CC[C@@H](C(C)(C)O[C@@H]2O[C@H](CO[C@@H]3OC[C@H](O)[C@H](O)[C@H]3O)[C@@H](O)[C@H](O)[C@H]2O)CC1`: the inhibition result in data set [1] and in [6] was “Active” in each case. The inhibition entry in data set [2] and in [7] was “inactive” in each case. Besides, the Activity result in data set [3] is listed as “Non-toxic”. Moreover, in data set [4], the IC50 was above 50 µM. For the same compound, in data set [8], the inhibition was below 40%.
With `CC(=O)O[C@H]1[C@H](OC[C@H]2O[C@@H](Oc3ccc(O)cc3)[C@H](O)[C@@H](O)[C@@H]2O)O[C@@H](C)[C@H](OC(=O)c2ccc(O)cc2)[C@H]1O`, the inhibition entry in data set [1], in data set [2] and in data set [7] was “inactive” in each case. Also, the Activity result in data set [3] is recorded as “Non-toxic”. Besides, the IC50 in [4] and in [5] was above 50 µM in each case. Moreover, in data set [6], the inhibition entry is “Active”.
Consider `O=C(O[C@H]1[C@H](Oc2c(-c3ccc(O)cc3)oc3cc(O)cc(O)c3c2=O)O[C@H](CO)[C@@H](O)[C@@H]1O)c1cc(O)c(O)c(O)c1`, for which the inhibition entry in [1], in data set [2] and in data set [7] was “inactive” each time. Further, the Activity result in data set [3] is “Non-toxic”. Also, the IC50 amounted to 17.2 µM in [4] and 27.4 µM in data set [9]. The inhibition in [8] was above 40%. Moreover, the inhibition at 10 µM in [6] was determined as 21.5%.
Take `O=C(O[C@H]1[C@H](Oc2c(-c3ccc(O)c(O)c3)oc3cc(O)cc(O)c3c2=O)O[C@H](CO)[C@@H](O)[C@@H]1O)c1cc(O)c(O)c(O)c1`: the inhibition result in [1], in [2] and in [7] was “inactive” each time. The Activity result in data set [3] is “Non-toxic”. In addition, the IC50 in [4] turned out to be 16.4 µM; in data set [9], 18 µM. The inhibition in [8] is above 40%. In addition, the inhibition at 10 µM in data set [6] stood at 21.5%.
In the case of `COC/C=C/c1ccc(O[C@@H](CO)CO[C@@H]2O[C@H](CO)[C@@H](O)[C@H](O)[C@H]2O)c(OC)c1`, the inhibition entry in data set [1] and in data set [6] was “Active” each time. Also, the inhibition result in data set [2] and in data set [7] was “inactive” in each case. Further, the Activity entry in data set [3] is listed as “Non-toxic”. Further, the IC50 in data set [4] was 27.2 µM; in data set [5] it was 28.6 µM. In addition, the inhibition in [8] was below 40%.
In the case of `COC/C=C/c1ccc(O[C@@H]2O[C@H](CO)[C@@H](O)[C@H](O)[C@H]2O)c(OC)c1`, the results for the inhibition at 10 µM in data set [1] and in [6] were 32.9% and 21.5%, respectively. The inhibition entry in data set [2] and in [7] was “inactive” in each case. In [3], the Activity entry is listed as “Non-toxic”. For the same compound, the IC50 in data set [4] was 16.5 µM; in [5], 19.1 µM. The inhibition in data set [8] was below 40%.
Turning to `OC[C@H]1O[C@@H](OCc2ccccc2)[C@H](O)[C@@H]1O`, in data set [1], the inhibition entry is “Active”. Further, the inhibition entry in [2] and in data set [7] was “inactive” throughout. The Activity result in [3] is on record as “Non-toxic”. Also, the IC50 in data set [4] stood at 18.4 µM; in [5], 24.5 µM. Besides, the inhibition at 10 µM in data set [6] is 21.5%.
Regarding `C[C@@H]1O[C@@H](OC[C@H]2O[C@@H](Oc3c(-c4ccc(O)cc4)oc4cc(O)cc(O)c4c3=O)[C@H](O)[C@@H](O)[C@@H]2O)[C@H](O)[C@H](O)[C@H]1O` [NICOTIFLOROSIDE], the inhibition entry in data set [1], in [2] and in data set [7] was “inactive” each time. In addition, the Activity entry in [3] is reported as “Non-toxic”. Besides, the IC50 was 41.5 µM in [4] and 45.3 µM in [5]. For the same compound, the inhibition result in [6] is “Active”.
`COc1cc(/C=C/CO)cc(OC)c1O[C@@H]1O[C@H](CO)[C@@H](O)[C@H](O)[C@H]1O` [SYRINGIN]: the inhibition result in data set [1] and in data set [6] was “Active” in each case. Besides, the inhibition result in data set [2] and in [7] was “inactive” each time. Besides, in data set [3], the Activity entry is reported as “Non-toxic”. Moreover, the figures for the IC50 in [4] and in data set [5] were 34.9 µM and 24 µM, respectively. In addition, in data set [8], the inhibition was below 40%.
On to `O=c1c(O[C@@H]2O[C@H](CO)[C@@H](O)[C@H](O)[C@H]2O)c(-c2ccc(O)c(O)c2)oc2cc(O)cc(O)c12` [ISOQUERCETIN], for which the inhibition result in data set [1], in data set [2] and in data set [7] was “inactive” throughout. Also, in data set [3], the Activity entry was “Non-toxic”. Further, the IC50 in data set [4] was above 50 µM; in data set [9] it was 28.4 µM. Also, the inhibition in data set [8] is above 40%. Moreover, in data set [6], the inhibition entry was “Active”.
`O=C(O[C@H]1[C@H](Oc2c(-c3ccc(O)cc3)oc3cc(O)cc(O)c3c2=O)O[C@H](CO)[C@@H](O)[C@@H]1OC(=O)c1cc(O)c(O)c(O)c1)c1cc(O)c(O)c(O)c1`: the inhibition result in data set [1], in [2] and in data set [7] was “inactive” each time. The Activity result in data set [3] was “Non-toxic”. In addition, the inhibition in data set [8] is above 40%. For the same compound, in data set [6], the inhibition result was “Active”. Besides, the half-inhibitory concentration (IC50) in [9] was 23.8 µM.
With `COC(=O)Cc1c2c3c(cc(O)c(O)c3oc1=O)C(=O)O[C@@H]2C(=O)OC`, the inhibition entry in [1] and in data set [6] was “Active” in each case. The inhibition entry in data set [2] and in data set [7] was “inactive” throughout. For the same compound, the Activity result in data set [3] is reported as “Non-toxic”. The IC50 in data set [5] worked out at 19.5 µM.
Regarding `Cc1ccc(-c2cc(C(F)(F)F)nn2-c2ccc(S(N)(=O)=O)cc2)cc1` [CELECOXIB], the IC50 in data set [4] amounted to 1.28 µM; in [5] it was 1.84 µM.
On to `COC/C=C/c1cc(OC)c(O[C@@H]2O[C@H](CO)[C@@H](O)[C@H](O)[C@H]2O)c(OC)c1`, for which the inhibition at 10 µM in data set [1] was determined as 30%; in [6], 21.5%. For the same compound, the inhibition result in data set [2] and in [7] was “inactive” each time. Further, the Activity entry in [3] is reported as “Non-toxic”. In addition, the figures for the IC50 in data set [4] and in data set [5] were 17.5 µM and 17.2 µM, respectively.
